Results as given in patent EP4566600A1, “AFFECTIVE DISORDER AMELIORATING AGENT” (National University Corporation Kobe University, priority 2022, dated 2024).

Tests used:
GFP-PKCγ = molecular target: T1, GFP-PKCγ (Homo sapiens, UniProt P05129); assay: PKCγ activity inhibitory action in TPA-treated COS7 cells expressing GFP-PKCγ (Western blotting for PKCγ and phosphorylated PKCγ); format: cell-based; conditions: treated with TPA and flavonoid, n=2 (Fig. 5)
T1 construct: expressed in transfected cells; host or cells: COS7 cells, electroporation, 48 h
Procedure: The PKCγ activity inhibitory action of various flavonoids was tested. Scutellarin (Scu), baicalin (Bai), luteolin (Lut), and apigenin (Api) were used as various flavonoids. A plasmid encoding GFP-PKCγ was introduced into COS7 cells by electroporation and cultured for 48 hours to express GFP-PKCγ. After treating the cells with TPA (12-O-Tetradecanoylphorbol-13-acetate, activator of PKCγ) and each flavonoid, the cells were ground and proteins were subjected to SDS-PAGE. Thereafter, Western blotting was performed for PKCγ and phosphorylated PKCγ (activated form).

[1] = system: affective disorder model mice (DGKβKO mice); assay: elevated plus maze test (affective disorder evaluation system 1); format: in vivo; conditions: relative to that in the case of taking placebo; male affective disorder model mice aged 8-11 weeks, drinking water containing 600 mg/L of lithium for 10 consecutive days
Procedure: Mice in which DGKβ was knocked out (DGKβKO mice) were prepared as an affective disorder (mania) model. This model mice are not associated with dementia.
An elevated plus maze test was used. In an elevated plus maze, a passage with a wall (closed arm) and a passage without a wall (open arm) crossed each other in a cross shape, and normal mice (WT) were afraid of the open arm and stayed in the closed arm for a long time, while affective disorder model mice were less likely to feel anxiety and stayed in the open arm for a long time. Based on this, the ratio of the residence time in the open arm in the test time was used as an index of anxiety.
Male affective disorder model mice aged 8-11 weeks were allowed to freely drink water containing 600 mg/L of lithium for 10 consecutive days.
The affective disorder model mice orally administered with lithium were subjected to affective disorder evaluation system 1 (elevated plus maze test) to evaluate amelioration of affective disorder (mania).

PKCγ activity inhibitory action (GFP-PKCγ) | Compound | ratio of the residence time in the open arm [1]
observed | O=c1cc(-c2ccc(O)cc2)oc2cc(O)cc(O)c12 [apigenin] | –
observed | O=C(O)[C@H]1O[C@@H](Oc2cc3oc(-c4ccccc4)cc(=O)c3c(O)c2O)[C@H](O)[C@@H](O)[C@@H]1O [baicalin] | –
– | [Li] [lithium] | about 30%

Compound | PKCγ activity inhibitory action (GFP-PKCγ) | ratio of the residence time in the open arm [1]
O=c1cc(-c2ccc(O)c(O)c2)oc2cc(O)cc(O)c12 [luteolin] | observed | –
